Assay results as given in ChEMBL document CHEMBL4325925, “Privileged Structures and Polypharmacology within and between Protein Families” (ACS Med Chem Lett, 2018).

What was measured:
[1] = target: T1, Pirin (Homo sapiens, UniProt O00625); assay: Displacement of 6-amino-9-(2-((4-((2-((6-((5-(2,3-dihydrobenzo[b][1,4]dioxine-6-carboxamido)-2-methylphenyl)carbamoyl)quinolin-2-yl)oxy)ethyl)amino)-4-oxobutyl)(methyl)carbamoyl)phenyl)-3-imino-3H-xanthene-4,5-disulfonic acid from pirin (unknown origin) by fluorescence polarization assay
T1 sequence (O00625 whole entry): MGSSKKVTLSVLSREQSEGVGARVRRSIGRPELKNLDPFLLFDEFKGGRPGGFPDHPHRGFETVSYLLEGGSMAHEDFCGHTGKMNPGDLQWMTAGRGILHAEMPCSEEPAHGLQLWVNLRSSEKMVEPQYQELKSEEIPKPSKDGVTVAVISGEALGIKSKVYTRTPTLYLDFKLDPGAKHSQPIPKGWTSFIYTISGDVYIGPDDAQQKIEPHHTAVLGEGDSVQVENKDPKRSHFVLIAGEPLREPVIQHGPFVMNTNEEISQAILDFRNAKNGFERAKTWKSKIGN

[2] = target: Serine/threonine-protein kinase B-raf (Homo sapiens, UniProt P15056); assay: Inhibition of recombinant human full length GST-tagged BRAF expressed in baculovirus expression system
Sequence of Serine/threonine-protein kinase B-raf (Homo sapiens, UniProt P15056) (P15056 whole entry): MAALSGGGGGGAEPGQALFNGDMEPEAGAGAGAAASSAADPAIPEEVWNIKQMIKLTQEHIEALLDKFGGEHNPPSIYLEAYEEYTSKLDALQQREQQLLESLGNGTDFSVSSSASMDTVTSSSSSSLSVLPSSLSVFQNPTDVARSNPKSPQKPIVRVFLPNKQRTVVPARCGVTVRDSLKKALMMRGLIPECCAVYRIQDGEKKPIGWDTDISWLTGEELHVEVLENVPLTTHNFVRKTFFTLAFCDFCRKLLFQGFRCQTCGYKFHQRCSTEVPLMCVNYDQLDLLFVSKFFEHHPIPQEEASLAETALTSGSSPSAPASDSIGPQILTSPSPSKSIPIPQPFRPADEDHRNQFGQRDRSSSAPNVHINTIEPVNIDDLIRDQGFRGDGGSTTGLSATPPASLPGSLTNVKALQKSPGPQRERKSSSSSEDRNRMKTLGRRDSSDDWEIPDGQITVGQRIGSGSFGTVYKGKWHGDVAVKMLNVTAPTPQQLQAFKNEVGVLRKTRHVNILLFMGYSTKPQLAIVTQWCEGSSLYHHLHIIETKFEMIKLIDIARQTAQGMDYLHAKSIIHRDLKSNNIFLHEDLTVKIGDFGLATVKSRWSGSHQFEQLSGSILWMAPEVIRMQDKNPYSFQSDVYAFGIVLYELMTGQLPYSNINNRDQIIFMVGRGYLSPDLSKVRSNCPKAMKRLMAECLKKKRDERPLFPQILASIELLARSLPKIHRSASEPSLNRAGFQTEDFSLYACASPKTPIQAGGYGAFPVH

[3] = target: Serine/threonine-protein kinase B-raf (Homo sapiens, UniProt P15056, V600E); assay: Inhibition of recombinant human GST-tagged BRAF V600E mutant expressed in baculovirus expression system
Sequence of Serine/threonine-protein kinase B-raf (Homo sapiens, UniProt P15056, V600E) (P15056 2-766 V600E limits assumed): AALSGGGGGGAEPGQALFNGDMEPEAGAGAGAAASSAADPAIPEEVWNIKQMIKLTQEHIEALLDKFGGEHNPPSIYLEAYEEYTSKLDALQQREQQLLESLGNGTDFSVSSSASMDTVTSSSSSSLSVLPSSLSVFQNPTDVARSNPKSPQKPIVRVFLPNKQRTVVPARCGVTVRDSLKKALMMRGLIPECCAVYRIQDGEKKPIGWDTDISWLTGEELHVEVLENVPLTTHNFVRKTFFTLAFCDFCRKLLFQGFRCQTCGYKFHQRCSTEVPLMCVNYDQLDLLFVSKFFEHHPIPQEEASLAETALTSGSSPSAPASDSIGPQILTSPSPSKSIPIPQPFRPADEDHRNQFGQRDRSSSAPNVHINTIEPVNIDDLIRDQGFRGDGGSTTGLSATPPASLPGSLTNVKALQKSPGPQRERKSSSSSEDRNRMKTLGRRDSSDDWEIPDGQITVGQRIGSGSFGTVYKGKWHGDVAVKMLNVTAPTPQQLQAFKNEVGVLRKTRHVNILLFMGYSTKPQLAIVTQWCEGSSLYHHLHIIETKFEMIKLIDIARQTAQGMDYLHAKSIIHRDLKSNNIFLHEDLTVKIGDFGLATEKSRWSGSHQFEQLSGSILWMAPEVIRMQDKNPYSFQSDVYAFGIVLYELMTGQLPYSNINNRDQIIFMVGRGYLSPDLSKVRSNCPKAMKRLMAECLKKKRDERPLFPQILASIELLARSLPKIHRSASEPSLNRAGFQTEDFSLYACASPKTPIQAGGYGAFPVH

[4] = target: T2, Serine/threonine-protein kinase TAO1 (Homo sapiens, UniProt Q7L7X3); assay: Inhibition recombinant human TAOK1 (1 to 356 residues) after 5 mins in presence of [33P] ATP by Topcount method
T2 sequence (Q7L7X3 whole entry): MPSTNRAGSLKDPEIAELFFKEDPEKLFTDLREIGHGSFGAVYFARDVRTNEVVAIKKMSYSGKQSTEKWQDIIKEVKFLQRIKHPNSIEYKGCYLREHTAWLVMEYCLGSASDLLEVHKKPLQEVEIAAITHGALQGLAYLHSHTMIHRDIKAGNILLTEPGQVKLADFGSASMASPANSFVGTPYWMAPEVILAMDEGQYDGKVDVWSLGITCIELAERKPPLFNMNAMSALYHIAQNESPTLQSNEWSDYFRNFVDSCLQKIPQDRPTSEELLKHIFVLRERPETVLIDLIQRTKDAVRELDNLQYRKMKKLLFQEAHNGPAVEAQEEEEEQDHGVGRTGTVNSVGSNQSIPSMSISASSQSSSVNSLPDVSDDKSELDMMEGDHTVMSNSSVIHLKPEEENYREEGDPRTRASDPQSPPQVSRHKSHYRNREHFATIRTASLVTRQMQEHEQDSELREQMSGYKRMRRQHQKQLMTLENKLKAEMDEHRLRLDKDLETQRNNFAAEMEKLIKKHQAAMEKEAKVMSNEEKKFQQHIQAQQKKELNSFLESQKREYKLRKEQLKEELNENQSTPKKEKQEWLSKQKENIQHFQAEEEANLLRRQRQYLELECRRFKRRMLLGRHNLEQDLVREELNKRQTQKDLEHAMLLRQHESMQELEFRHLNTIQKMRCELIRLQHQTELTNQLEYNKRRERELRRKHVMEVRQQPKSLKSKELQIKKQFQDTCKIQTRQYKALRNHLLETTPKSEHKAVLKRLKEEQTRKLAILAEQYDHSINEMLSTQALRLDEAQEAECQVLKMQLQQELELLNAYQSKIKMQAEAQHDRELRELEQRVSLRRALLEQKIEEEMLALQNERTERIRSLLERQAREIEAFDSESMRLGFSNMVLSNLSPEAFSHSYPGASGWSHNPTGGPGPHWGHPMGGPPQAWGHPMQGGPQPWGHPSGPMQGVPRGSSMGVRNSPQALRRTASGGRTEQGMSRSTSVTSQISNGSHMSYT

[5] = target: Homeodomain-interacting protein kinase 2 (Homo sapiens, UniProt Q9H2X6); assay: Inhibition recombinant human HIPK2 (165 to 564 residues) after 5 mins in presence of [33P] ATP by Topcount method
Sequence of Homeodomain-interacting protein kinase 2 (Q9H2X6 whole entry, the tested form may be a part): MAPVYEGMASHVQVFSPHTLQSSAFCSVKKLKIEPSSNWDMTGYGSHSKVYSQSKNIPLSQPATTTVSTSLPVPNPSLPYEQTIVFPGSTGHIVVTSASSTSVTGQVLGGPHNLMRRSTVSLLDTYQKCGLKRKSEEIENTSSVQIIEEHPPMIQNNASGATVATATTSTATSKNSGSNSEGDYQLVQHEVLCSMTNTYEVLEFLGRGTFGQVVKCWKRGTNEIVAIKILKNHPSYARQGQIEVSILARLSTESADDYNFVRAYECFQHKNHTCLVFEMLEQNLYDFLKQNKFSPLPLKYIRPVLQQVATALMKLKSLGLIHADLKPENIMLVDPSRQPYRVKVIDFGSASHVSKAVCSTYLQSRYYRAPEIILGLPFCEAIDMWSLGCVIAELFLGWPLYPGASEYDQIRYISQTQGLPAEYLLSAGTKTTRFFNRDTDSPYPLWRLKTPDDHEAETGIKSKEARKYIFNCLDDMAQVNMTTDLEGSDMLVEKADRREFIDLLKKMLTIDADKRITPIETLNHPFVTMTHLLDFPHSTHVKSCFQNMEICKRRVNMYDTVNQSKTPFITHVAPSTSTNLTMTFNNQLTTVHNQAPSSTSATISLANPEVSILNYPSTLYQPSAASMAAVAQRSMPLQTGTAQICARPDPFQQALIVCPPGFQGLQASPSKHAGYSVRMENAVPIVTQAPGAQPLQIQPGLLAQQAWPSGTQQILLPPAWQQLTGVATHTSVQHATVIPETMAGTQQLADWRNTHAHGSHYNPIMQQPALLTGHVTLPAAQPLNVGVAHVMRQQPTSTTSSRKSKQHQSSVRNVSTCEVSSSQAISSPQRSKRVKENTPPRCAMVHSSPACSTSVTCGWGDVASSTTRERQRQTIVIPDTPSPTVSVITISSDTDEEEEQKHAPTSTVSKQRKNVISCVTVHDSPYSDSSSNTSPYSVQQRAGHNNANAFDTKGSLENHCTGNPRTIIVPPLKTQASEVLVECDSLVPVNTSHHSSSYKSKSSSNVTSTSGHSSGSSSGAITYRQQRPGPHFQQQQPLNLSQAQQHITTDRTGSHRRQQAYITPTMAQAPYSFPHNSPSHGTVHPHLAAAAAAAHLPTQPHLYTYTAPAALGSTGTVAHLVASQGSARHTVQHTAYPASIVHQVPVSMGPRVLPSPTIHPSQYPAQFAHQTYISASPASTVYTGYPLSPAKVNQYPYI

Work on `Cc1ccc(NC(=O)c2cccc(C(C)(C)C#N)c2)cc1Nc1ccc2ncn(C)c(=O)c2c1` yielded an IC50 [1] of over 10000 nM.
Work on `N#Cc1c(Oc2ccc(F)c(NC(=O)Cc3cccc(C(F)(F)F)c3)c2)ccc2nc(NC(=O)C3CC3)sc12` yielded an IC50 [1] of over 10000 nM, an IC50 [2] of 8 nM and an IC50 [3] of 2 nM.
`c1cnc2ncn(-c3cc(Nc4ccc(OCCN5CCCCC5)cn4)ncn3)c2c1` was tested, and the IC50 [4] was 490 nM and the IC50 [5] was 30 nM.
`CC(C)(C)N1CCN(Cc2ccc3cc(C(=O)Nc4cc(NC(=O)c5ccc6c(c5)OCCO6)ccc4Cl)ccc3n2)CC1` was tested, and the IC50 [1] was 33 nM and the IC50 [2] was over 10000 nM.
`OCCn1cc(-c2ccc3c(c2)CC/C3=N\O)c(-c2ccncc2)n1` gave an IC50 [1] of over 10000 nM.
Compound `CC(C)(C)c1nc(-c2cccc(NS(=O)(=O)c3c(F)cccc3F)c2F)c(-c2ccnc(N)n2)s1` [DABRAFENIB] has an IC50 [1] of over 10000 nM.
`CCCS(=O)(=O)Nc1ccc(F)c(C(=O)c2c[nH]c3ncc(Cl)cc23)c1F` [PLX-4720] gave an IC50 [1] of 670 nM.
In the case of `Cn1c(Nc2ccc(C(F)(F)F)cc2)nc2cc(Oc3ccnc(-c4ncc(C(F)(F)F)[nH]4)c3)ccc21` [RAF-265], the IC50 [1] is reported as over 10000 nM.
